In patent US20260374739A1, “SMALL MOLECULAR WEIGHT CHEMICAL COMPOUND TO ANTAGONIZE EPH-EPHRIN TETRAMERIZATION AND INHIBIT BIDIRECTIONAL SIGNALING” (THE BOARD OF REGENTS OF THE UNIVERSITY OF TEXAS SYSTEM, priority 2022, published 2026):
“And” between values parts separate entries of the source, which are not always exact repeats. Identical values can stand only once. Like-named read-outs stand apart in the source and are kept apart here.

Columns and labels:
[1] = test system: DH neurons in the spinal cord; assay: dorsal horn neuron activation (Tom+) after Zymosan; assay type: in vivo, mouse; details: PO
From the text: In this example, an in-house method to count and quantify/analyze Tom+ neurons (see Example 23) in the dorsal horn (DH) of the spinal cord is used to track the effect of an inflammatory insult (subcutaneous injection of CFA into the left hind paw). As described above in Example 23, we initially dissected perfusion-fixed spinal cords and then cut in the transverse plane 50 μm thick serial sections throughout the entire length of the lumbar cord of each animal using a vibratome aiming to capture all sections. As serial sections are cut, they are placed into 10 section bins (500 μm spinal cord per bin) and a total of 12 bins are collected spanning 6 mm total spinal cord length. […] Focusing in on this “sweet spot” of 4 bins, the additional sections were mounted and analyzed (aiming for at least 12 sections from these 4 bins, 3 per bin) to increase total data to analyze.
In another example, 307 Axioscan imaged lumbar spinal cord sections from the “sweet spots” of eight+/+wild-type mice subjected to Zymosan pain model and oral dosing of either vehicle (n=3), 3511-I (2×HCl, n=3), or BQPB4 (3×HCl, n=2) were analyzed. […] There was also a trend towards lower overall Tom+ ratios in the 3511-I or BQPB4 treated mice, though the numbers of mice analyzed here were too low to reveal significance.

EphrinB2-EphB1 = molecular target: T1, EphrinB2-EphB1 (Homo sapiens, UniProt P54762); assay: Octet, immobilized human EphrinB2 binding to 50 nM soluble human EphB1
T1 construct: soluble human EphB1-His, EphB2-His, and EphB4-His ectodomains; commercially available human EphrinB1-Fc (EB1), EphrinB2-Fc (EB2), and EphrinB3-Fc (EB3) ectodomain proteins; purchased
T1 sequence (P54762 18-540 limits assumed): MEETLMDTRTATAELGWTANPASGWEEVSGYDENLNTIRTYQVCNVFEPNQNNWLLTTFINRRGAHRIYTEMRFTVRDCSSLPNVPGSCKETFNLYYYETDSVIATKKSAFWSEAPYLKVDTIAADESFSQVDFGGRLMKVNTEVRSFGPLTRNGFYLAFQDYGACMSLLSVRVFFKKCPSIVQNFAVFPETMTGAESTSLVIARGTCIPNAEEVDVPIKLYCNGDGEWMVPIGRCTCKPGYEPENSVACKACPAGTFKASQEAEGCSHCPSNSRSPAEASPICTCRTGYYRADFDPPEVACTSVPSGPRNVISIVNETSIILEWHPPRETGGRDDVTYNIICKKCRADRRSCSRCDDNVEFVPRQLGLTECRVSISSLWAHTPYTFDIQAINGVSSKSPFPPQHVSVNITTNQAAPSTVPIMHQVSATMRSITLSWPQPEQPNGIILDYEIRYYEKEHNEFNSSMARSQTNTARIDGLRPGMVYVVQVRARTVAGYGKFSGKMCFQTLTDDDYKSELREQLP
Protocol: Studies were conducted to confirm that A20 chemicals can effectively target the human Eph/Ephrin proteins. Octet system was used to first characterize the biophysical interactions of the human B class Eph and Ephrin proteins, and then was tested to assess how A20 may disrupt the interactions. Since the human and rodent proteins are highly conserved, and essentially identical, with EphB2 sharing 99.5% identity between human and mouse, with only 5 of ~1,000 amino acids different, any species-specific differences were not anticipated. Therefore, commercially available human EphrinB1-Fc (EB1), EphrinB2-Fc (EB2), and EphrinB3-Fc (EB3) ectodomain proteins were sparsely immobilized onto biosensors and then exposed to 50 nM of soluble human EphB1-His, EphB2-His, and EphB4-His ectodomains for 800 sec association and 1,000 sec dissociation steps with a total of nine different interactions analyzed. In the absence of A20 chemical, the immobilized human EphrinB proteins bound to their appropriate human EphB target proteins; with EphrinB1 only bound EphB1 and EphB2, EphrinB2 bound all three EphB1, EphB2, and EphB4, and EphrinB3 only bound EphB1 and EphB2 (FIG. 19A-19B).
The Octet studies shown in FIG. 19A-19F, and FIG. 20A-20C, and Table 2 using human proteins involved runs in which 1, 10, and 100 μM concentrations of the A20.2×HCl salt were included to determine how compound would affect binding kinetics. The sensorgrams for immobilized human EphrinB2 binding to EphB2 and EphB4 with 0, 1, 10, and 100 μM concentrations of A20 salt provide good examples of how the compound can alter Eph-Ephrin protein-protein interaction dynamics. […] This indicates the effective/relative IC50 for A20 is well below 1 μM (more accurate IC50 calculations are provided below). Notwithstanding, if just the sensorgram responses for 0 and 1 μM A20 are analyzed for absolute IC50 calculations (FIG. 21B), it is clear the compound is a much stronger inhibitor of the EB2-EphB2 interaction whether assessed near the end of association step (blue star), shortly after start of dissociation step (gold star), or by AUC, as all provide absolute IC50 values −1 μM. […] For EphB2-EB2, the slope went from 20° to 10° in the presence of A20 and for EphB4-EB2 from 5° to 3°. The reduced slope later in the association step indicates the A20 compound is specifically affecting accumulation of the stable tetramer.
Addition of compound also altered dissociation kinetics. […] This is referred to as the “unsurmountable” component of the Eph-Ephrin interaction (FIG. 21C). Additionally, AUC data was graphed for these runs (FIG. 21D). […] For EB2-EphB4, the dimer:tetramer ratio was 83:8 in the presence of A20 and was not much different from the no compound control run because it is already a strong dimer-driven interaction. […] A similar though more muted effect of A20 on tetramer accumulation was also observed for the other interactions of immobilized human EphrinB binding to soluble human EphB1 and EphB2 ectodomains (FIG. 22). The inhibitory effect of A20 is strongest on the EB2-EphB2 interaction with absolute IC50 reaching 1 μM, followed by the EB2-EphB1 interaction with absolute IC50-10 μM. […] The “unsurmountable” component of the EB2-EphB1 interaction was-50% of the tetramer species (14:41) whereas that for EB2-EphB2 interaction is-30%.
Further to the experiments listed above, a series of dose-response experiments were conducted to determine the IC50 of a selected A20 chemical (A20-1) on the kinetics of human EphrinB2 ligand ectodomain protein binding to its cognate human EphB1, EphB2, and EphB4 receptor ectodomain proteins. FIG. 74A-74C are representative sensorgrams showing the effect of 0, 0.1, 0.2, 0.4, 0.8, 1.6, and 3.2 μM, concentrations of the 2×HCl salt of A20-I along with a 10 μM max standard (also A20-1) on three different Ephrin-EphB interactions (e.g., EphB1 in FIG. 74A, EphB2 in FIG. 74B and EphB4 in FIG. 74C). […]

[2] = Table B, EphrinB2-EphB1, read-out: Relative Association IC50 (300 sec)

Oc1c(Br)cc(CN2CCN(c3ccc(Br)cc3)CC2)c2cccnc12 [Compound 28, 7-bromo-5-((4-(4-bromophenyl)piperazin-1-yl)methyl)quinolin-8-ol] was tested, and the “ratio of Tom+ DH neurons” value [1] was “significantly lower ratio of Tom+ neurons compared to the vehicle treated animals”.

Molecule Oc1c(Br)cc(CN2CCOCC2)c2cccnc12 [Compound 5, 7-bromo-5-(morpholinomethyl)quinolin-8-ol] has an IC50 (EphrinB2-EphB1; A20 salt, read-out: absolute IC50) of about 10000 nM and an IC (maximum) (EphrinB2-EphB1; read-out: concentration producing maximum inhibition) of 10 µM.

With Oc1c(I)cc(CN2CCOCC2)c2cccnc12 [Compound 8, 4-((8-hydroxy-7-iodoquinolin-1-ium-5-yl)methyl)morpholin-4-ium chloride] the IC50 (EphrinB2-EphB1; [2]) was 1140 nM.

Oc1c(Br)cc(CN2CCN(c3ccc(Br)cc3)CC2)c2cccnc12 [Compound 30, 7-bromo-5-((4-(4-bromophenyl)piperazin-1-ium-1-yl)methyl)-8-hydroxyquinolin-1-ium chloride] gave an IC50 (EphrinB2-EphB1; Table B, EphrinB2-EphB1, read-out: Absolute AUC/IC50) of 160 nM, an IC50 (EphrinB2-EphB1; Table B, EphrinB2-EphB1, read-out: Absolute Dissociation IC50 (450 sec)) of 330 nM and an IC50 (EphrinB2-EphB1; Table B, EphrinB2-EphB1, read-out: Relative AUC/IC50) of 60 nM. The IC50 (EphrinB2-EphB1; [2]) was 150 nM and 1100 nM and the IC50 (EphrinB2-EphB1; Table B, EphrinB2-EphB1, read-out: Relative Dissociation IC50 (450 sec)) was 70 nM.

In the case of COc1ccccc1N1CCN(Cc2cc(I)c(O)c3ncccc23)CC1 [Compound 71, 7-iodo-5-((4-(2-methoxyphenyl)piperazin-1-yl)methyl)quinolin-8-ol], the “ratio of Tom+ DH neurons” value [1] is reported as “significantly lower ratio of Tom+ neurons compared to the vehicle treated animals”.
